Experimental data reported in patent US11446292B2, “Compounds and conjugates thereof” (MedImmune Limited, priority 2019, dated 2022).

Tested on: NCI-N87 cells
Experiment: In vitro assay of warhead, cell viability by MTS
Assay type: cell-based
Conditions: Homo sapiens, 168 h, 7 days incubation, mean of three independent replicates
Description: Solid test material was dissolved in DMSO to a 2 mM stock solution, from which eight serial dilutions were made at a 1:10 ratio in DMSO and stored at −20° C. until use.
Adherent NCI-N87 cells were washed with D-PBS and detached with Trypsin-EDTA, cell density and viability were then determined in duplicate by Trypan blue exclusion assay using an automated cell counter (LUNA-II™). Cell suspension was diluted to 1×10^5 cells/ml in growth media (RPMI 1640 with Glutamax+10% (v/v) HyClone™ Fetal Bovine Serum) and vortexed before dispensing 2 mL per well into sterile 3 mL polypropylene plates. Warhead dilutions were then dispensed into the appropriate wells at 10 μl/well and mixed by repeat pipetting. […] At the end of the incubation period time (7 days), cell viability was measured by CellTiter 96 ™ aqueous One (MTS) assay, which was dispensed at 20 μl/well and incubated for 4 hours at 37° C., 5% CO2. Plates were then read on an EnVision™ Multi-label Plate Reader (Perkin Elmer) using absorbance at 490 nm.
Cell survival percentage was calculated from the mean absorbance of the 2 replicate wells for each sample, compared to the mean absorbance in the two control wells treated with DMSO only (100%). The IC50 was determined by fitting each data set to sigmoidal dose-response curves with a variable slope using the non-linear curve fit algorithm on the GraphPad Prism software (San Diego, Calif.). […]

`CC[C@@]1(O)C(=O)OCc2c1cc1n(c2=O)Cc2c-1nc1ccc(N)c3c1c2CCC3` [Compound I11, (S)-4-amino-9-ethyl-9-hydroxy-1,2,3,9,12,15-hexahydro-10H,13H-benzo[de]pyrano[3′,4′:6,7]indolizino[1,2-b]quinoline-10,13-dione] gave an IC50 of 0.385 nM.
